{
  "source": "PubChem BioAssay (NCI)",
  "assay_in_all_cases": "inhibition of tumour cell growth, NCI panel, 48 h",
  "key": {"[1]": {"test_system": "HL-60(TB) leukemia"}, "[2]": {"test_system": "SK-MEL-28 melanoma"}, "[3]": {"test_system": "PC-3 prostate"}, "[4]": {"test_system": "OVCAR-8 ovarian"}, "[5]": {"test_system": "U251 CNS"}, "[6]": {"test_system": "OVCAR-4 ovarian"}, "[7]": {"test_system": "MOLT-4 leukemia"}, "[8]": {"test_system": "MCF7 breast"}, "[9]": {"test_system": "A549 NSCLC"}, "[10]": {"test_system": "LOX IMVI melanoma"}, "[11]": {"test_system": "OVCAR-3 ovarian"}, "[12]": {"test_system": "NCI-H522 lung"}, "[13]": {"test_system": "M14 melanoma"}, "[14]": {"test_system": "MALME-3M melanoma"}, "[15]": {"test_system": "SNB-19 CNS"}, "[16]": {"test_system": "HS 578T breast"}, "[17]": {"test_system": "SR leukemia"}, "[18]": {"test_system": "K-562 leukemia"}, "[19]": {"test_system": "HOP-62 NSCLC"}, "[20]": {"test_system": "SK-MEL-2 melanoma"}, "[21]": {"test_system": "TK-10 renal"}, "[22]": {"test_system": "KM12 colon"}, "[23]": {"test_system": "NCI/ADR-RES ovarian"}, "[24]": {"test_system": "COLO 205 colon"}, "[25]": {"test_system": "HCT-116 colon"}, "[26]": {"test_system": "SK-OV-3 ovarian"}, "[27]": {"test_system": "HOP-92 NSCLC"}, "[28]": {"test_system": "SW-620 colon"}, "[29]": {"test_system": "SF-268 CNS"}, "[30]": {"test_system": "UACC-257 melanoma"}, "[31]": {"test_system": "OVCAR-5 ovarian"}, "[32]": {"test_system": "HT29 colon"}, "[33]": {"test_system": "SNB-75 CNS"}, "[34]": {"test_system": "786-0 renal"}, "[35]": {"test_system": "MDA-MB-435"}, "[36]": {"test_system": "DU-145 prostate"}, "[37]": {"test_system": "EKVX NSCLC"}, "[38]": {"test_system": "ACHN renal"}, "[39]": {"test_system": "CAKI-1 renal"}, "[40]": {"test_system": "BT-549 breast"}, "[41]": {"test_system": "UACC-62 melanoma"}, "[42]": {"test_system": "NCI-H226 lung"}, "[43]": {"test_system": "HCT-15 colon"}, "[44]": {"test_system": "SF-539 CNS"}, "[45]": {"test_system": "NCI-H460 lung"}, "[46]": {"test_system": "MDA-MB-231 breast"}, "[47]": {"test_system": "T-47D breast"}, "[48]": {"test_system": "RXF 393 renal"}, "[49]": {"test_system": "SF-295 CNS"}, "[50]": {"test_system": "UO-31 renal"}, "[51]": {"test_system": "IGROV1 ovarian"}, "[52]": {"test_system": "SN12C renal"}, "[53]": {"test_system": "SK-MEL-5 melanoma"}, "[54]": {"test_system": "NCI-H23 lung"}},
  "note": "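Method: 48-hour compound exposure of cells in 96-well plates, five concentrations, linear interpolation of endpoints. Definition used: TGI = concentration required for complete inhibition of growth.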",
  "data": [
    {"smiles": "O=[N+]([O-])c1ccc2nnnn2c1", "values": [
      {"measurement": "TGI", "setting": "[1]", "result": 74.6, "unit": "µM"},
      {"measurement": "TGI", "setting": "[2]", "result": 61.8, "unit": "µM"},
      {"measurement": "TGI", "setting": "[3]", "result": "> 100", "unit": "µM"},
      {"measurement": "TGI", "setting": "[4]", "result": "> 100", "unit": "µM"},
      {"measurement": "TGI", "setting": "[5]", "result": 84.9, "unit": "µM"},
      {"measurement": "TGI", "setting": "[6]", "result": "> 100", "unit": "µM"},
      {"measurement": "TGI", "setting": "[7]", "result": "> 100", "unit": "µM"},
      {"measurement": "TGI", "setting": "[8]", "result": "> 100", "unit": "µM"},
      {"measurement": "TGI", "setting": "[9]", "result": "> 100", "unit": "µM"},
      {"measurement": "TGI", "setting": "[10]", "result": 35.8, "unit": "µM"},
      {"measurement": "TGI", "setting": "[11]", "result": 35.2, "unit": "µM"},
      {"measurement": "TGI", "setting": "[12]", "result": 13.2, "unit": "µM"},
      {"measurement": "TGI", "setting": "[13]", "result": "> 100", "unit": "µM"},
      {"measurement": "TGI", "setting": "[14]", "result": 60.5, "unit": "µM"},
      {"measurement": "TGI", "setting": "[15]", "result": "> 100", "unit": "µM"},
      {"measurement": "TGI", "setting": "[16]", "result": "> 100", "unit": "µM"},
      {"measurement": "TGI", "setting": "[17]", "result": 87.1, "unit": "µM"},
      {"measurement": "TGI", "setting": "[18]", "result": "> 100", "unit": "µM"},
      {"measurement": "TGI", "setting": "[19]", "result": "> 100", "unit": "µM"},
      {"measurement": "TGI", "setting": "[20]", "result": 67.1, "unit": "µM"},
      {"measurement": "TGI", "setting": "[21]", "result": "> 100", "unit": "µM"},
      {"measurement": "TGI", "setting": "[22]", "result": "> 100", "unit": "µM"},
      {"measurement": "TGI", "setting": "[23]", "result": "> 100", "unit": "µM"},
      {"measurement": "TGI", "setting": "[24]", "result": "> 100", "unit": "µM"},
      {"measurement": "TGI", "setting": "[25]", "result": 50.6, "unit": "µM"},
      {"measurement": "TGI", "setting": "[26]", "result": "> 100", "unit": "µM"},
      {"measurement": "TGI", "setting": "[27]", "result": "> 100", "unit": "µM"},
      {"measurement": "TGI", "setting": "[28]", "result": "> 100", "unit": "µM"},
      {"measurement": "TGI", "setting": "[29]", "result": "> 100", "unit": "µM"},
      {"measurement": "TGI", "setting": "[30]", "result": "> 100", "unit": "µM"},
      {"measurement": "TGI", "setting": "[31]", "result": "> 100", "unit": "µM"},
      {"measurement": "TGI", "setting": "[32]", "result": "> 100", "unit": "µM"},
      {"measurement": "TGI", "setting": "[33]", "result": "> 100", "unit": "µM"},
      {"measurement": "TGI", "setting": "[34]", "result": "> 100", "unit": "µM"},
      {"measurement": "TGI", "setting": "[35]", "result": 32.8, "unit": "µM"},
      {"measurement": "TGI", "setting": "[36]", "result": "> 100", "unit": "µM"},
      {"measurement": "TGI", "setting": "[37]", "result": "> 100", "unit": "µM"},
      {"measurement": "TGI", "setting": "[38]", "result": "> 100", "unit": "µM"},
      {"measurement": "TGI", "setting": "[39]", "result": 63.1, "unit": "µM"},
      {"measurement": "TGI", "setting": "[40]", "result": "> 100", "unit": "µM"},
      {"measurement": "TGI", "setting": "[41]", "result": "> 100", "unit": "µM"},
      {"measurement": "TGI", "setting": "[42]", "result": 47.3, "unit": "µM"},
      {"measurement": "TGI", "setting": "[43]", "result": 44.3, "unit": "µM"},
      {"measurement": "TGI", "setting": "[44]", "result": 65.7, "unit": "µM"},
      {"measurement": "TGI", "setting": "[45]", "result": "> 100", "unit": "µM"},
      {"measurement": "TGI", "setting": "[46]", "result": 96.4, "unit": "µM"},
      {"measurement": "TGI", "setting": "[47]", "result": "> 100", "unit": "µM"},
      {"measurement": "TGI", "setting": "[48]", "result": "> 100", "unit": "µM"},
      {"measurement": "TGI", "setting": "[49]", "result": "> 100", "unit": "µM"},
      {"measurement": "TGI", "setting": "[50]", "result": "> 100", "unit": "µM"},
      {"measurement": "TGI", "setting": "[51]", "result": "> 100", "unit": "µM"},
      {"measurement": "TGI", "setting": "[52]", "result": "> 100", "unit": "µM"},
      {"measurement": "TGI", "setting": "[53]", "result": 41.4, "unit": "µM"},
      {"measurement": "TGI", "setting": "[54]", "result": "> 100", "unit": "µM"}
    ]}
  ]
}
